{
  "source": "patent US6777412B2",
  "about": "(priority 1990, dated 2004)",
  "type_in_all_cases": "in vivo",
  "key": {"Thanatephorus cucumeris": {"test_system": "Thanatephorus cucumeris", "assay": "Foliar fungal disease test on plants: Thanatephorus cucumeris (Tc)", "procedure": "(§1) The compounds were tested against a variety of foliar fungal diseases of plants. The technique employed was as follows.\n(§2) The plants were grown in John Innes Potting Compost (No.1 or 2) in 4 cm diameter minipots. The test compounds were formulated either by bead milling with aqueous Dispersol T or as a solution in acetone or acetone/ethanol which was diluted to the required concentration immediately before use. For the foliage diseases, the formulations (100 ppm active ingredient except where otherwise indicated) were sprayed onto the foliage and applied to the roots of the plants in the soil. The sprays were applied to maximum retention and the root drenches to a final concentration equivalent to approximately 40 ppm a.i. in dry soil. Tween 20, to give a final concentration of 0.05%, was added when the sprays were applied to cereals.\n(§3) For most of the tests the compound was applied to the soil (roots) and to the foliage (by spraying) one or two days before the plant was inoculated with the disease. An exception was the test on Erysiphe graminis in which the plants were inoculated 24 hours before treatment. Foliar pathogens were applied by spray as spore suspensions onto the leaves of test plants. After inoculation, the plants were put into an appropriate environment to allow infection to proceed and then incubated until the disease was ready for assessment. The period between inoculation and assessment varied from four to fourteen days according to the disease and environment.\n(§4) The disease control vas recorded by the following grading:\n(§5) 3=trace-5% of disease on untreated plants\n(§6) 2=6-25% of disease on untreated plants\n(§7) 1=26-59% of disease on untreated plants\n(§8) 0=60-100% of disease on untreated plants\nTc Thanatephorus cucumeris"}, "Plasmopara viticola": {"test_system": "Plasmopara viticola", "assay": "Foliar fungal disease test on plants: Plasmopara viticola (Pv)", "outline": "(§9)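 Potted plants treated by foliar spray to maximum retention (100 ppm a.i. unless stated) plus root drench (~40 ppm a.i. in dry soil), with 0.05% Tween 20 on cereals, one or two days before spore-suspension inoculation.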"}, "Pyricularia oryzae": {"test_system": "Pyricularia oryzae"}, "[1]": {"test_system": "Phytophthora infestans lycopersici"}, "Venturia inaequalis": {"test_system": "Venturia inaequalis", "assay": "Foliar fungal disease test on plants: Venturia inaequalis (Vi)", "outline": "as §9"}, "Erysiphe graminis hordei": {"test_system": "Erysiphe graminis hordei", "assay": "Foliar fungal disease test on plants: Erysiphe graminis hordei (Egh)"}, "Septoria nodorum": {"test_system": "Septoria nodorum", "assay": "Foliar fungal disease test on plants: Septoria nodorum (Sn)", "procedure": "as §1, §2, §3, §4, §5, §6, §7, §8"}, "Puccinia recondita": {"test_system": "Puccinia recondita", "assay": "Foliar fungal disease test on plants: Puccinia recondita (Pr)", "outline": "as §9"}, "[2]": {"test_system": "Erysiphe graminis tritici", "assay": "Foliar fungal disease test on plants: Erysiphe graminis tritici (Egt)", "details": "100 ppm active ingredient foliar spray plus root drench (approx. 40 ppm a.i. in dry soil); plants inoculated 24 hours before treatment", "procedure": "as §1, §2, §3, §4, §5, §6, §7, §8\nEgt Erysiphe graminis tritici"}, "[3]": {"details": "100 ppm active ingredient foliar spray plus root drench (approx. 40 ppm a.i. in dry soil), one or two days before inoculation"}, "[4]": {"details": "100 ppm active ingredient foliar spray plus root drench (approx. 40 ppm a.i. in dry soil), plants inoculated 24 hours before treatment"}},
  "note": "Where two headings read alike, the source gives them in different places. Marks after values point to notes of the source that are not given here.",
  "data": [
    {"smiles": "CO/C=C(/C(=O)OC)c1ccccc1Oc1cc(OCCSc2ccccc2)ncn1", "note": "[391 of Table I]", "values": [
      {"measurement": "disease control grading, Tc (Thanatephorus cucumeris)", "setting": "Thanatephorus cucumeris; [3]", "value": "4 (4=no disease)"},
      {"measurement": "disease control grading, Pv (Plasmopara viticola)", "setting": "Plasmopara viticola; [3]", "value": "4 (4=no disease)"},
      {"measurement": "disease control grading, Po (Pyricularia oryzae)", "setting": "Pyricularia oryzae; [3]", "value": "3 (3=trace-5% of disease on untreated plants)"},
      {"measurement": "disease control grading, Pil (Phytophthora infestans lycopersici)", "setting": "[1]; [3]", "value": "4 (4=no disease)"},
      {"measurement": "disease control grading, Vi (Venturia inaegualis)", "setting": "Venturia inaequalis; [3]", "value": "4 (4=no disease)"},
      {"measurement": "disease control grading, Egh (Erysiphe graminis hordei)", "setting": "Erysiphe graminis hordei; [4]", "value": "4 (4=no disease)"},
      {"measurement": "disease control grading, Sn (Septoria nodorum)", "setting": "Septoria nodorum; [3]", "value": "4 (4=no disease)"},
      {"measurement": "disease control grading, Pr (Puccinia recondita)", "setting": "Puccinia recondita; [3]", "value": "4 (4=no disease)"}
    ]},
    {"smiles": "CO/C=C(/C(=O)OC)c1ccccc1Oc1cc(OCc2c(F)c(F)c(F)c(F)c2F)ncn1", "note": "[388 of Table I]", "values": [
      {"measurement": "disease control grading, Tc (Thanatephorus cucumeris)", "setting": "Thanatephorus cucumeris; [3]", "value": "4 (4=no disease)"},
      {"measurement": "disease control grading, Pv (Plasmopara viticola)", "setting": "Plasmopara viticola; [3]", "value": "4 (4=no disease)"},
      {"measurement": "disease control grading, Po (Pyricularia oryzae)", "setting": "Pyricularia oryzae; [3]", "value": "4 (4=no disease)"},
      {"measurement": "disease control grading, Pil (Phytophthora infestans lycopersici)", "setting": "[1]; [3]", "value": "4 (4=no disease)"},
      {"measurement": "disease control grading, Vi (Venturia inaegualis)", "setting": "Venturia inaequalis; [3]", "value": "4 (4=no disease)"},
      {"measurement": "disease control grading, Egh (Erysiphe graminis hordei)", "setting": "Erysiphe graminis hordei; [4]", "value": "4 (4=no disease)"},
      {"measurement": "disease control grading, Sn (Septoria nodorum)", "setting": "Septoria nodorum; [3]", "value": "4 (4=no disease)"},
      {"measurement": "disease control grading, Pr (Puccinia recondita)", "setting": "Puccinia recondita; [3]", "value": "4 (4=no disease)"}
    ]},
    {"smiles": "CO/C=C(/C(=O)OC)c1ccccc1Oc1cc(OCc2ccccc2C#N)ncn1", "note": "[389 of Table I]", "values": [
      {"measurement": "disease control grading, Tc (Thanatephorus cucumeris)", "setting": "Thanatephorus cucumeris; 10 ppm foliar application only", "value": "4^a (4=no disease)"},
      {"measurement": "disease control grading, Pv (Plasmopara viticola)", "setting": "Plasmopara viticola; 10 ppm foliar application only", "value": "4^a (4=no disease)"},
      {"measurement": "disease control grading, Po (Pyricularia oryzae)", "setting": "Pyricularia oryzae; 10 ppm foliar application only", "value": "4^a (4=no disease)"},
      {"measurement": "disease control grading, Pil (Phytophthora infestans lycopersici)", "setting": "[1]; 10 ppm foliar application only", "value": "0^a (0=60-100% of disease on untreated plants)"},
      {"measurement": "disease control grading, Vi (Venturia inaegualis)", "setting": "Venturia inaequalis; 10 ppm foliar application only", "value": "4^a (4=no disease)"},
      {"measurement": "disease control grading, Egh (Erysiphe graminis hordei)", "setting": "Erysiphe graminis hordei; 10 ppm foliar application only", "value": "4^a (4=no disease)"},
      {"measurement": "disease control grading, Sn (Septoria nodorum)", "setting": "Septoria nodorum; 10 ppm foliar application only", "value": "4^a (4=no disease)"},
      {"measurement": "disease control grading, Pr (Puccinia recondita)", "setting": "Puccinia recondita; 10 ppm foliar application only", "value": "4^a (4=no disease)"}
    ]},
    {"smiles": "CO/C=C(/C(=O)OC)c1ccccc1Oc1cc(OCc2cccs2)ncn1", "note": "[394 of Table I]", "values": [
      {"measurement": "disease control grading, Tc (Thanatephorus cucumeris)", "setting": "Thanatephorus cucumeris; [3]", "value": "4 (4=no disease)"},
      {"measurement": "disease control grading, Pv (Plasmopara viticola)", "setting": "Plasmopara viticola; [3]", "value": "4 (4=no disease)"},
      {"measurement": "disease control grading, Po (Pyricularia oryzae)", "setting": "Pyricularia oryzae; [3]", "value": "3 (3=trace-5% of disease on untreated plants)"},
      {"measurement": "disease control grading, Pil (Phytophthora infestans lycopersici)", "setting": "[1]; [3]", "value": "4 (4=no disease)"},
      {"measurement": "disease control grading, Vi (Venturia inaegualis)", "setting": "Venturia inaequalis; [3]", "value": "4 (4=no disease)"},
      {"measurement": "disease control grading, Sn (Septoria nodorum)", "setting": "Septoria nodorum; [3]", "value": "4 (4=no disease)"},
      {"measurement": "disease control grading, Pr (Puccinia recondita)", "setting": "Puccinia recondita; [3]", "value": "4 (4=no disease)"},
      {"measurement": "disease control grading, Egt (Erysiphe graminis tritici)", "setting": "[2]", "value": "4 (4=no disease)"}
    ]},
    {"smiles": "CO/C=C(/C(=O)OC)c1ccccc1Oc1cc(OCCSc2ccccc2C#N)ncn1", "note": "[393 of Table I]", "values": [
      {"measurement": "disease control grading, Tc (Thanatephorus cucumeris)", "setting": "Thanatephorus cucumeris; [3]", "value": "4 (4=no disease)"},
      {"measurement": "disease control grading, Pv (Plasmopara viticola)", "setting": "Plasmopara viticola; [3]", "value": "4 (4=no disease)"},
      {"measurement": "disease control grading, Po (Pyricularia oryzae)", "setting": "Pyricularia oryzae; [3]", "value": "4 (4=no disease)"},
      {"measurement": "disease control grading, Pil (Phytophthora infestans lycopersici)", "setting": "[1]; [3]", "value": "4 (4=no disease)"},
      {"measurement": "disease control grading, Vi (Venturia inaegualis)", "setting": "Venturia inaequalis; [3]", "value": "0 (0=60-100% of disease on untreated plants)"},
      {"measurement": "disease control grading, Egh (Erysiphe graminis hordei)", "setting": "Erysiphe graminis hordei; [4]", "value": "4 (4=no disease)"},
      {"measurement": "disease control grading, Sn (Septoria nodorum)", "setting": "Septoria nodorum; [3]", "value": "4 (4=no disease)"},
      {"measurement": "disease control grading, Pr (Puccinia recondita)", "setting": "Puccinia recondita; [3]", "value": "4 (4=no disease)"}
    ]},
    {"smiles": "CO/C=C(/C(=O)OC)c1ccccc1Oc1cc(OCc2c(Cl)cccc2C(F)(F)F)ncn1", "note": "[383 of Table I]", "values": [
      {"measurement": "disease control grading, Tc (Thanatephorus cucumeris)", "setting": "Thanatephorus cucumeris; 10 ppm foliar application only", "value": "4^a (4=no disease)"},
      {"measurement": "disease control grading, Pv (Plasmopara viticola)", "setting": "Plasmopara viticola; 10 ppm foliar application only", "value": "4^a (4=no disease)"},
      {"measurement": "disease control grading, Po (Pyricularia oryzae)", "setting": "Pyricularia oryzae; 10 ppm foliar application only", "value": "0^a (0=60-100% of disease on untreated plants)"},
      {"measurement": "disease control grading, Pil (Phytophthora infestans lycopersici)", "setting": "[1]; 10 ppm foliar application only", "value": "0^a (0=60-100% of disease on untreated plants)"},
      {"measurement": "disease control grading, Vi (Venturia inaegualis)", "setting": "Venturia inaequalis; 10 ppm foliar application only", "value": "3^a (3=trace-5% of disease on untreated plants)"},
      {"measurement": "disease control grading, Egh (Erysiphe graminis hordei)", "setting": "Erysiphe graminis hordei; 10 ppm foliar application only", "value": "0^a (0=60-100% of disease on untreated plants)"},
      {"measurement": "disease control grading, Sn (Septoria nodorum)", "setting": "Septoria nodorum; 10 ppm foliar application only", "value": "4^a (4=no disease)"},
      {"measurement": "disease control grading, Pr (Puccinia recondita)", "setting": "Puccinia recondita; 10 ppm foliar application only", "value": "4^a (4=no disease)"}
    ]},
    {"smiles": "CO/C=C(/C(=O)OC)c1ccccc1Oc1cc(N(C=O)c2ccccc2O)ncn1", "note": "[392 of Table I]", "values": [
      {"measurement": "disease control grading, Tc (Thanatephorus cucumeris)", "setting": "Thanatephorus cucumeris; 10 ppm foliar application only", "value": "0^a (0=60-100% of disease on untreated plants)"},
      {"measurement": "disease control grading, Pv (Plasmopara viticola)", "setting": "Plasmopara viticola; 10 ppm foliar application only", "value": "0^a (0=60-100% of disease on untreated plants)"},
      {"measurement": "disease control grading, Po (Pyricularia oryzae)", "setting": "Pyricularia oryzae; 10 ppm foliar application only", "value": "0^a (0=60-100% of disease on untreated plants)"},
      {"measurement": "disease control grading, Pil (Phytophthora infestans lycopersici)", "setting": "[1]; 10 ppm foliar application only", "value": "0^a (0=60-100% of disease on untreated plants)"},
      {"measurement": "disease control grading, Vi (Venturia inaegualis)", "setting": "Venturia inaequalis; 10 ppm foliar application only", "value": "0^a (0=60-100% of disease on untreated plants)"},
      {"measurement": "disease control grading, Egh (Erysiphe graminis hordei)", "setting": "Erysiphe graminis hordei; 10 ppm foliar application only", "value": "0^a (0=60-100% of disease on untreated plants)"},
      {"measurement": "disease control grading, Sn (Septoria nodorum)", "setting": "Septoria nodorum; 10 ppm foliar application only", "value": "1^a (1=26-59% of disease on untreated plants)"},
      {"measurement": "disease control grading, Pr (Puccinia recondita)", "setting": "Puccinia recondita; 10 ppm foliar application only", "value": "0^a (0=60-100% of disease on untreated plants)"}
    ]}
  ]
}
